In patent US20260274832A1, “COMPOUNDS AND THEIR USE IN TREATING CANCER” (ASTRAZENECA AB, priority 2023, published 2026):

What was measured:
[1] = biological target: T1, AR (L702H) in LNCaP cells (Homo sapiens, UniProt P10275, L702H/T878A); test: LNCaP Androgen Receptor L702H Imaging Assay (LNCaP cells engineered by CRISPR/Cas9); assay type: cell-based; details: LNCaP cells with AR L702H mutation, 24 h incubation; for DC50: concentration giving 50% of maximum degradation of AR (L702H) per curve fit; for LNCaP AR (L702H) Degradation Dmax / Dmax: maximum degradation observed, normalized as % of positive control; for Dmax: LNCaP
T1 construct: engineered to introduce the mutation L702H into the AR gene using CRISPR/Cas9; endogenous in cells; host or cells: LNCaP cells edited by CRISPR/Cas9 at the AR gene
T1 sequence (P10275 whole entry L702H/T878A): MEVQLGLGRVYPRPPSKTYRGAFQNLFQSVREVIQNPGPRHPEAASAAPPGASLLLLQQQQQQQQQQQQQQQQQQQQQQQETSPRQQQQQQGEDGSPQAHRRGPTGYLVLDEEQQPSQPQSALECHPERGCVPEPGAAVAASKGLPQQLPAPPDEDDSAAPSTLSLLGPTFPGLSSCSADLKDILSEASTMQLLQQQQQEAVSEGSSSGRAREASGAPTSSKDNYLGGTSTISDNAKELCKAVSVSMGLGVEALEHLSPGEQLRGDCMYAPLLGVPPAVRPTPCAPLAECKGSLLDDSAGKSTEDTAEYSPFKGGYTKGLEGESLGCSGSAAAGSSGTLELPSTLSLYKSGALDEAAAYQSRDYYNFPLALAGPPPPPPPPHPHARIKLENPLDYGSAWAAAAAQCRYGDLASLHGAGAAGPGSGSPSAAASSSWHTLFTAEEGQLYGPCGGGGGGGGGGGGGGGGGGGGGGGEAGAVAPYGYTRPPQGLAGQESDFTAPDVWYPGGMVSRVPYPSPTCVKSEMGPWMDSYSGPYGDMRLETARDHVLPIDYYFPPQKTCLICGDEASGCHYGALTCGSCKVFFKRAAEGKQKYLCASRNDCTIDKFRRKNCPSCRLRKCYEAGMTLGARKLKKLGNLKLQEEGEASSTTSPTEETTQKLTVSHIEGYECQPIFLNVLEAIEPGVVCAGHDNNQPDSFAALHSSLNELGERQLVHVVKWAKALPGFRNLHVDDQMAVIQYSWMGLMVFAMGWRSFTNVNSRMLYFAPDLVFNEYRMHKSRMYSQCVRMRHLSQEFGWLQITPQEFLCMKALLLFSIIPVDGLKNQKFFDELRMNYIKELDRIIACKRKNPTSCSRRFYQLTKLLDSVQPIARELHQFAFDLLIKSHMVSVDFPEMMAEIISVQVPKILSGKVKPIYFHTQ
T1 sequence (Q96SW2 whole entry partner): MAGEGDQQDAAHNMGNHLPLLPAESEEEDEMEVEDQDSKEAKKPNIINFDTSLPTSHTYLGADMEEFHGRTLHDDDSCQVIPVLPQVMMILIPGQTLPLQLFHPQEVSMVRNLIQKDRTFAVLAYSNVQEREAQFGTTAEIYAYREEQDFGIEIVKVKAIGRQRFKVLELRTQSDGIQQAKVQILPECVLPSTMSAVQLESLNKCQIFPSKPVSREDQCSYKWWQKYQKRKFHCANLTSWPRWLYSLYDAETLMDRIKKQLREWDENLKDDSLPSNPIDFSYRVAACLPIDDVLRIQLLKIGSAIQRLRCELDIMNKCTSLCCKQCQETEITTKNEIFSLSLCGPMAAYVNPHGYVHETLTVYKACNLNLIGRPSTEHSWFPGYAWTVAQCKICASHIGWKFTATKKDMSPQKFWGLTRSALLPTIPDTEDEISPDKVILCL
Method in brief: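 CRISPR-engineered LNCaP cells carrying AR L702H were treated 24 h at 37 °C with a 12-point compound dose response (0.3% DMSO), then fixed and immunostained for AR with DRAQ5 nuclear counterstain. Nuclear AR was quantified by imaging, normalized to positive control; DC50 and Dmax came from Hill or bell-shaped fits.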

[2] = biological target: T2, AR (AR-full length) in LNCaP cells (Homo sapiens, UniProt P10275, T878A); test: LNCaP Androgen Receptor Imaging Assay (immunofluorescence of endogenous nuclear AR); assay type: cell-based; details: 24 h incubation; for DC50: concentration giving 50% of maximum degradation of AR per curve fit, single experiment or average of two or more; for Dmax: LNCaP
T2 construct: the prostate cancer cell line LNCaP (expressing AR-full length); endogenous in cells; host or cells: LNCaP
T2 sequence (P10275 whole entry T878A): as the sequence (P10275 whole entry L702H/T878A) above, with H702L counted along it
T2 sequence (Q96SW2 whole entry partner): as the sequence (Q96SW2 whole entry partner) above
Method in brief: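 LNCaP cells (12,000/well) received a 12-point compound dose series (0.3% DMSO) for 24 h at 37° C., then were PFA-fixed and stained for AR (AR441) and nuclei (DRAQ5). Nuclear AR was quantified by imaging, normalized to a 3 μM AR PROTAC control; DC50 and Dmax came from Hill/bell curve fits.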

[3] = maximum degradation observed, normalized as % of positive control (prior art AR PROTAC at 3 μM)

DC50 [1] [nM]	LNCaP AR (L702H) Degradation Dmax [1] [%]	DC50 [2] [nM]	Dmax [2, 3] [%]	Dmax [1] [%]	LNCaP AR Degradation Dmax [2, 3] [%]	SMILES
3100	98	18	81			N#Cc1c[nH]c2c(N3CCCC(c4ccc(N5CCC(CN6CCC(n7ccc8c(N9CCC(=O)NC9=O)cccc87)CC6)CC5)nn4)C3)ccc(Cl)c12 (single isomer, unassigned) [Example 121, 4-Chloro-7-[(3R*)-3-{6-[4-({4-[4-(2,4-dioxo-1,3-diazinan-1-yl)-1H-indol-1-yl]piperidin-1-yl}methyl)piperidin-1-yl]pyridazin-3-yl}piperidin-1-yl]-1H-indole-3-carbonitrile]
6		7	107	109		Cn1c(C2CCN(CC3CCN(c4ccc([C@@H]5CCCN(c6ccc(Cl)c7c(C#N)c[nH]c67)C5)cc4)CC3)CC2)cc2ccc(N3CCC(=O)NC3=O)cc21 [Example 13, 4-Chloro-7-[(3S)-3-{4-[4-({4-[6-(2,4-dioxo-1,3-diazinan-1-yl)-1-methyl-1H-indol-2-yl]piperidin-1-yl}methyl)piperidin-1-yl]phenyl}piperidin-1-yl]-1H-indole-3-carbonitrile]
15		6	97	87		N#Cc1c[nH]c2c(N3CCC(c4ccc(OC5CCN(CC6CCN(c7ccc8c(c7)CN(C7CCC(=O)NC7=O)C8=O)CC6)CC5)cc4)CC3)ccc(F)c12 (stereo not shown) [Example 101, 7-[4-(4-{[1-({1-[2-(2,6-Dioxopiperidin-3-yl)-1-oxo-2,3-dihydro-1H-isoindol-5-yl]piperidin-4-yl}methyl)piperidin-4-yl]oxy}phenyl)piperidin-1-yl]-4-fluoro-1H-indole-3-carbonitrile]
33		16	88	99		COc1nc(N2CCN(CC3CCN(c4ccc([C@@H]5CCCN(c6ccc(Cl)c7c(C#N)c[nH]c67)C5)cc4)CC3)CC2)cc2c1C(=O)N(C1CCC(=O)NC1=O)C2 (single isomer, unassigned) [Example 39, 4-Chloro-7-[(3S)-3-(4-{4-[(4-{2-[(3R*)-2,6-dioxopiperidin-3-yl]-4-methoxy-3-oxo-2,3-dihydro-1H-pyrrolo[3,4-c]pyridin-6-yl}piperazin-1-yl)methyl]piperidin-1-yl}phenyl)piperidin-1-yl]-1H-indole-3-carbonitrile]
21		8	93	70		Cn1c(=O)n(C2CCC(=O)NC2=O)c2cccc(CN3CCN(CC4CCN(c5ccc([C@@H]6CCCN(c7ccc(F)c8c(C#N)c[nH]c78)C6)cc5)CC4)CC3)c21 (stereo partly shown) [Example 74]
2		2	106	115		N#Cc1cc(C(=O)NC2CCN(c3ccc(Cl)c4c(C#N)c[nH]c34)CC2)ccc1N1CCC(CN2CCC(n3ccc4c(N5CCC(=O)NC5=O)cccc43)CC2)CC1 [Example 165, N-[1-(4-Chloro-3-cyano-1H-indol-7-yl)piperidin-4-yl]-3-cyano-4-[4-({4-[4-(2,4-dioxo-1,3-diazinan-1-yl)-1H-indol-1-yl]piperidin-1-yl}methyl)piperidin-1-yl]benzamide]
2		1	100	101		N#Cc1n[nH]c2c(N3CCC(NC(=O)c4ccc(N5CCC(CN6CCC(n7ccc8c(N9CCC(=O)NC9=O)cccc87)CC6)CC5)cn4)CC3)ccc(Cl)c12 [Example 170, N-[1-(4-Chloro-3-cyano-1H-indazol-7-yl)piperidin-4-yl]-5-[4-({4-[4-(2,4-dioxo-1,3-diazinan-1-yl)-1H-indol-1-yl]piperidin-1-yl}methyl)piperidin-1-yl]pyridine-2-carboxamide]
2		1	101	100		N#Cc1c[nH]c2c(N3CCC(NC(=O)c4ccc(N5CCC(CN6CCC(n7ccc8c(N9CCC(=O)NC9=O)cccc87)CC6)CC5)cn4)CC3)ccc(Cl)c12 [Example 167, N-[1-(4-Chloro-3-cyano-1H-indol-7-yl)piperidin-4-yl]-5-[4-({4-[4-(2,4-dioxo-1,3-diazinan-1-yl)-1H-indol-1-yl]piperidin-1-yl}methyl)piperidin-1-yl]pyridine-2-carboxamide]
14		6	99	103		N#Cc1n[nH]c2c(N3CCOC(c4ccc(N5CCC(CN6CCC(n7ccc8c(N9CCC(=O)NC9=O)cccc87)CC6)CC5)cc4)C3)ccc(Cl)c12 (single isomer, unassigned) [Example 119, 4-Chloro-7-[(2S*)-2-{4-[4-({4-[4-(2,4-dioxo-1,3-diazinan-1-yl)-1H-indol-1-yl]piperidin-1-yl}methyl)piperidin-1-yl]phenyl}morpholin-4-yl]-1H-indazole-3-carbonitrile]
67		37	101	104		COc1nc(N2CCN(CC3CCN(c4ccc(C5CCN(c6ccc(Cl)c7c(C#N)n[nH]c67)CC5)cc4)CC3)CC2)cc2c1C(=O)N(C1CCC(=O)NC1=O)C2 (stereo not shown) [Example 143, 4-Chloro-7-(4-{4-[4-({4-[2-(2,6-dioxopiperidin-3-yl)-4-methoxy-3-oxo-2,3-dihydro-1H-pyrrolo[3,4-c]pyridin-6-yl]piperazin-1-yl}methyl)piperidin-1-yl]phenyl}piperidin-1-yl)-1H-indazole-3-carbonitrile]
21		14	91	92		Cn1c(=O)n(C2CCC(=O)NC2=O)c2cccc(N3CCN(CC4CCN(c5ccc(C6CCN(c7ccc(Cl)c8c(C#N)c[nH]c78)CC6)cc5)CC4)CC3)c21 (stereo not shown) [Example 72, 4-Chloro-7-(4-{4-[4-({4-[1-(2,6-dioxopiperidin-3-yl)-3-methyl-2-oxo-2,3-dihydro-1H-benzimidazol-4-yl]piperazin-1-yl}methyl)piperidin-1-yl]phenyl}piperidin-1-yl)-1H-indole-3-carbonitrile]
14		15	94	99		COc1nc(N2CCN(C3CCN(c4ccc(C5CCN(c6ccc(Cl)c7c(C#N)c[nH]c67)CC5)cc4)CC3)CC2)cc2c1C(=O)N(C1CCC(=O)NC1=O)C2 (stereo not shown) [Example 86, 4-Chloro-7-{4-[4-(4-{4-[2-(2,6-dioxopiperidin-3-yl)-4-methoxy-3-oxo-2,3-dihydro-1H-pyrrolo[3,4-c]pyridin-6-yl]piperazin-1-yl}piperidin-1-yl)phenyl]piperidin-1-yl}-1H-indole-3-carbonitrile]
7		8	85	107		Cn1c(C2CCN(CC3CCN(c4ccc(C5CCN(c6ccc(Cl)c7c(C#N)c[nH]c67)CC5)cc4)CC3)CC2)cc2ncc(N3CCC(=O)NC3=O)cc21 [Example 103, 4-Chloro-7-(4-{4-[4-({4-[6-(2,4-dioxo-1,3-diazinan-1-yl)-1-methyl-1H-pyrrolo[3,2-b]pyridin-2-yl]piperidin-1-yl}methyl)piperidin-1-yl]phenyl}piperidin-1-yl)-1H-indole-3-carbonitrile]
23	97	11			103	N#Cc1c[nH]c2c(N3CCCC(c4ccc(N5CCC(CN6CCC(n7ccc8c(N9CCC(=O)NC9=O)cccc87)CC6)CC5)nc4)C3)ccc(Cl)c12 (single isomer, unassigned) [Example 116, 4-Chloro-7-[(3R*)-3-{6-[4-({4-[4-(2,4-dioxo-1,3-diazinan-1-yl)-1H-indol-1-yl]piperidin-1-yl}methyl)piperidin-1-yl]pyridin-3-yl}piperidin-1-yl]-1H-indole-3-carbonitrile]
49		61	89	95		N#Cc1c[nH]c2c(N3CCC(c4ccc(N5CCC(CN6CCN(c7ccc(C(=O)NC8CCC(=O)NC8=O)c(F)c7)CC6)CC5)cc4)CC3)ccc(F)c12 (stereo not shown) [Example 105, 4-{4-[(1-{4-[1-(3-Cyano-4-fluoro-1H-indol-7-yl)piperidin-4-yl]phenyl}piperidin-4-yl)methyl]piperazin-1-yl}-N-(2,6-dioxopiperidin-3-yl)-2-fluorobenzamide]

SMILES	DC50 [1] [nM]	LNCaP AR (L702H) Degradation Dmax [1] [%]	DC50 [2] [nM]	Dmax [2, 3] [%]	Dmax [1] [%]	LNCaP AR Degradation Dmax [2, 3] [%]
COc1cc(N2CCN(CCCCOc3ccc(C4CCN(c5ccc(C)c6c(C#N)c[nH]c56)CC4)cc3)CC2)cc2c1C(=O)N(C1CCC(=O)NC1=O)C2=O (stereo not shown) [Example 48, 7-{4-[4-(4-{4-[2-(2,6-Dioxopiperidin-3-yl)-7-methoxy-1,3-dioxo-2,3-dihydro-1H-isoindol-5-yl]piperazin-1-yl}butoxy)phenyl]piperidin-1-yl}-4-methyl-1H-indole-3-carbonitrile]	359		57	97	99	
